Data from patent publication US10836725B2, “Modulators of the integrated stress pathway” (Calico Life Sciences LLC, priority 2016, dated 2020).

tested on: ATF4 luciferase reporter; assay: ATF4-Luc assay in HEK293T cells carrying the ATF4 luciferase reporter (in vitro model of VWMD); assay type: cell-based, human; settings: Homo sapiens, HEK-293T, 1 μg/mL tunicamycin, 7 hours, luminescence (One Glo)
Summary of the method: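 Reporter cells were stably generated by retroviral transduction and puromycin selection, then seeded at 30,000 cells/well. Next day, cells received 1 μg/mL tunicamycin with 200 nM test compound for 7 h, and luciferase luminescence was read with a one-step reagent. Values reported as EC50.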

Row | Structure (SMILES) | EC50 [nM]
1 | COc1ccc(OC)c(CNC(=O)C23CC(NC(=O)COc4ccc(Cl)c(F)c4)(C2)C3)c1 [Compound 236, 3-[2-(4-chloro-3-fluorophenoxy)acetamido]-N-[(2,5-dimethoxyphenyl]methyl]bicyclo[1.1.1]pentane-1-carboxamide] | > 2000
2 | CCOc1ccc(CNC(=O)C23CC(NC(=O)COc4ccc(Cl)c(F)c4)(C2)C3)cc1 [Compound 240, 3-[2-(4-chloro-3-fluorophenoxy)acetamido]-N-[(4-ethoxyphenyl)methyl]bicyclo[1.1.1]pentane-1-carboxamide] | > 2000
3 | O=C(COc1ccc(Cl)c(F)c1)NC12CC(C(=O)NCCc3cccnc3)(C1)C2 [Compound 242, 3-[2-(4-chloro-3-fluorophenoxy)acetamido]-N-[2-(pyridin-3-yl)ethyl]bicyclo[1.1.1]pentane-1-carboxamide] | > 2000
4 | O=C(COc1ccc(Cl)c(F)c1)NC12CC(C(=O)NCc3ccccc3OC(F)F)(C1)C2 [Compound 243, 3-[2-(4-chloro-3-fluorophenoxy)acetamido]-N-{[2-(difluoromethoxy)phenyl]methyl}bicyclo[1.1.1]pentane-1-carboxamide] | > 2000
5 | Cc1occc1CNC(=O)C12CC(NC(=O)COc3ccc(Cl)c(F)c3)(C1)C2 [Compound 244, 3-[2-(4-chloro-3-fluorophenoxy)acetamido]-N-[(2-methylfuran-3-yl)methyl]bicyclo[1.1.1]pentane-1-carboxamide] | > 2000
6 | O=C(COc1ccc(Cl)c(F)c1)NC12CC(C(=O)NCc3ccc(F)cc3)(C1)C2 [Compound 245, 3-[2-(4-chloro-3-fluorophenoxy)acetamido]-N-[(4-fluorophenyl)methyl]bicyclo[1.1.1]pentane-1-carboxamide] | > 2000
7 | O=C(COc1ccc(Cl)c(F)c1)NC12CC(C(=O)NCc3ccc(SC(F)(F)F)cc3)(C1)C2 [Compound 246, 3-[2-(4-chloro-3-fluorophenoxy)acetamido]-N-({4-[(trifluoromethyl)sulfanyl]phenyl}methyl)bicyclo[1.1.1]pentane-1-carboxamide] | > 2000
8 | Cc1ccc(CNC(=O)C23CC(NC(=O)COc4ccc(Cl)c(F)c4)(C2)C3)c(C)n1 [Compound 251, 3-[2-(4-chloro-3-fluorophenoxy)acetamido]-N-[(2,6-dimethylpyridin-3-yl)methyl]bicyclo[1.1.1]pentane-1-carboxamide] | > 2000
9 | O=C(COc1ccc(Cl)c(F)c1)NC12CC(C(=O)NCCn3cccn3)(C1)C2 [Compound 252, 3-[2-(4-chloro-3-fluorophenoxy)acetamido]-N-[2-(1H-pyrazol-1-yl)ethyl]bicyclo[1.1.1]pentane-1-carboxamide] | > 2000

The next lines start with the values.

Row | EC50 [nM] | Structure (SMILES)
10 | > 2000 | O=C(COc1ccc(Cl)c(F)c1)NC12CC(C(=O)NCc3cccc(F)c3)(C1)C2 [Compound 237, 3-[2-(4-chloro-3-fluorophenoxy)acetamido]-N-[(3-fluorophenyl)methyl]bicyclo[1.1.1]pentane-1-carboxamide]
11 | > 2000 | CCCCc1ccc(CNC(=O)C23CC(NC(=O)COc4ccc(Cl)c(F)c4)(C2)C3)cc1 [Compound 238, N-[(4-butylphenyl)methyl]-3-[2-(4-chloro-3-fluorophenoxy)acetamido]bicyclo[1.1.1]pentane-1-carboxamide]
12 | > 2000 | O=C(COc1ccc(Cl)c(F)c1)NC12CC(C(=O)NCCc3ccc(F)cc3)(C1)C2 [Compound 239, 3-[2-(4-chloro-3-fluorophenoxy)acetamido]-N-[2-(4-fluorophenyl)ethyl]bicyclo[1.1.1]pentane-1-carboxamide]
13 | > 2000 | O=C(COc1ccc(Cl)c(F)c1)NC12CC(C(=O)NCc3ccc(Cl)c(Cl)c3)(C1)C2 [Compound 241, 3-[2-(4-chloro-3-fluorophenoxy)acetamido]-N-[(3,4-dichlorophenyl]methyl]bicyclo[1.1.1]pentane-1-carboxamide]
14 | > 2000 | CCCc1cc(CNC(=O)C23CC(NC(=O)COc4ccc(Cl)c(F)c4)(C2)C3)on1 [Compound 247, 3-[2-(4-chloro-3-fluorophenoxy)acetamido]-N-[(3-propyl-1,2-oxazol-5-yl)methyl]bicyclo[1.1.1]pentane-1-carboxamide]
15 | > 2000 | COc1ccc(CCNC(=O)C23CC(NC(=O)COc4ccc(Cl)c(F)c4)(C2)C3)cc1Cl [Compound 248, 3-[2-(4-chloro-3-fluorophenoxy)acetamido]-N-[2-(3-chloro-4-methoxyphenyl)ethyl]bicyclo[1.1.1]pentane-1-carboxamide]
16 | > 2000 | COc1ccc(CNC(=O)C23CC(NC(=O)COc4ccc(Cl)c(F)c4)(C2)C3)cc1Cl [Compound 249, 3-[2-(4-chloro-3-fluorophenoxy)acetamido]-N-[(3-chloro-4-methoxyphenyl)methyl]bicyclo[1.1.1]pentane-1-carboxamide]
17 | > 2000 | O=C(COc1ccc(Cl)c(F)c1)NC12CC(C(=O)NCc3cccc(OC(F)F)c3)(C1)C2 [Compound 250, 3-[2-(4-chloro-3-fluorophenoxy)acetamido]-N-{[3-(difluoromethoxy)phenyl]methyl}bicyclo[1.1.1]pentane-1-carboxamide]
